# Measurements from US20090325202A1, “Methods for Developing and Assessing Therapeutic Agents” (priority 2006, published 2009).
# Legend:
# [1] = tested on: AKT; assay: Ex vivo treatment of human breast cancer cells obtained by FNAB, AKT phosphorylation; assay type: cell-based; conditions: 3 hours, AG1478 0.5 uM, LY294002 10 uM
# Protocol: (§1) To obtain cancer cells cancer tumor tissue was sampled four times with a sterile 25G short needle and tumor samples were immediately transferred into 10 ml sterile prewarmed complete RPMI-1640 culture medium containing 10% fetal calf serum, penicillin (200 ug/ml) and streptomycin (200 ug/nil). After centrifugation and cells were resuspended and distributed in 6-well microculture plates and treated in duplicates with vehicle alone (DMSO control), an EGFR inhibitor AG1478 (0.5 uM) (Calbiochem, 658548), a MEK/ERK inhibitor PD98059 (20 uM) (Biosource International, PHZ 1164) or with a PI3K/AKT inhibitor LY294002 (10 uM) (Biosource International, PHZI 144) in a humidified 5% CO2 incubator at 37° C. for 3 hours.
# (§2) Following treatment nonadherent and adherent cells (collected by scraping) were pooled together in a 1.5 ml microcentrifuge tube and centrifuged at 500×g for 5 min at 4° C. After washing with PBS, cells were lysed in 100 μl of ice-cold lysis buffer and therapy-induced changes n the expression and phosphorylation levels of AKT and ERK1/2 were detected by Western blot.
# [2] = tested on: ERK1/2; assay: Phospho-/total ERK1/2 ELISA in EGF-stimulated T-47D cell smears; assay type: cell-based, human; conditions: T-47D cells, AG1478 0.5 uM, PD98059 20 uM
# Protocol: T47D cells were maintained in Dulbecco's modified Eagle's medium (Life Technologies, Inc.) supplemented with 10% fetal calf serum and antibiotics (Life Technologies, Inc.). Prior to EGF (Sigma) stimulation, cells were starved for 24 h in serum-free medium.
# (§3) Total cell lysates were obtained from either cells cultured in vitro or from tumor FNAB samples. Protein extracts were resolved by 4-15% SDS-PAGE and probed with Rabbit anti-EGFR, anti-phospbo-EGFR, anti-ERK1 and anti-phospho-ERK antibodies obtained from New England Biolabs (Beverly, Mass.). Immunoreactive proteins were visualized by enhanced chemiluminescence (Amersham International, United Kingdom). Total and phospho-ERK1/2 proteins were quantified by sandwich [LISA kits (BioSource International, Camarillo, Calif., USA) as described in the manufacturer's protocols. The reaction was read at 450 nm in an ELISA plate reader.
# Western blot analysis of protein samples is a conventional method for phosphoprotein analysis. However, Western blot analysis is limited in throughput and quantitative precision, and also requires large sample amounts. […] Therefore, it was tested if quantitative ELISA assays can be applied to cytologic samples to increase the assay sensitivity to measure the expression levels and activation status of specific signaling pathways. […]
# [3] = tested on: ERK1/2; assay: Ex vivo treatment of human breast cancer cells obtained by FNAB, ERK1/2 phosphorylation; assay type: cell-based; conditions: 3 hours, AG1478 0.5 uM, PD98059 20 uM
# Protocol: as §1, §2
# [4] = tested on: ERK1/2; assay: HuCCT-1 xenograft tumor FNAB phospho-/total ERK1/2 ELISA; assay type: in vivo, human
# Protocol: (§4) Four to 6-week-old female athymic (nu+/nu+) mice were purchased from Harlan (Harlan Laboratories, Washington, D.C.). The research protocol was approved by the Johns Hopkins University Animal Care Committee and animals were maintained in accordance with the guidelines of the American Association of Laboratory Animal Care. […] Mice were monitored daily for signs of toxicity and were weighed three times per week. Tumor size was evaluated three times per week by caliper measurements using the following formula: tumor volume=[length×width^2]/2. Tumor growth inhibition was calculated by tumor volume of treated mice divided by tumor volume of control mice. Experiments were terminated on day 14.
# as §3, with “Protein extracts were resolved by 4-15% SDS-PAGE and probed with Rabbit anti-EGFR, anti-phospbo-EGFR, anti-ERK1 and anti-phospho-ERK antibodies obtained from New England Biolabs (Beverly, Mass.).” left out
# Western blot analysis of protein samples is a conventional method for phosphoprotein analysis, but is limited in throughput, quantitative precision and requires large sample amounts. ELISA assays offer alternatives to Western blot with higher throughput and increased sensitivity. […] For this purpose the tumor FNAB samples, which have been analyzed on Western blot above (FIG. 16A), were used to assess the expression and phosphorylation of ERK1/2 proteins by the total and phospho-specific ERK1/2 ELISA assays, respectively.
# The amounts of phosphorylated ERK1/2 were normalized for the total contents of these proteins in each sample group and therapy-mediated changes in their phosphorylation status were quantified.
# [5] = tested on: HuCCT-1 tumors; assay: HuCCT-1 xenograft tumor growth; assay type: in vivo, athymic (nu+/nu+) mice; conditions: single agents: gefitinib 150 mg/Kg i.p. days 1-5 and 8-12, CI-1040 150 mg/Kg twice a day oral days 1-14
# Protocol: as §4
# To explore the feasibility of implementing this method in in vivo studies, mouse xenografts were next employed to test whether FNAB material obtained from tumor tissue can be utilized to monitor and predict therapy response in vivo. For this purpose HuCCT-1 cholangiocarcinoma cells were used to create a xenograft mouse model of human cholangiocarcinoma. […] Tumor volumes were measured and compared with tumors from animals that received drug vehicle alone.
# [6] = tested on: ERK1/2; assay: Panc 265 xenograft in vivo FNAB smears, ERK1/2 activity; design: species or system human; conditions: ZD1839 150 mg/Kg daily i.p., FNAB day 7
# Protocol: Animals were either untreated or treated with ZD1839: 150 mg/Kg daily or CCI-779: 20 mg/kg days 1-5 by intraperitoneal injection
# (§5) To obtain cancer cells, each animal tumor was sampled as described above. After collection of tumor FNAB samples, xenograft animals were subsequently treated with ZD1839 or CCI-779 for 28 days and tumor volumes were determined as described above. At day 7 of therapy, AD/DQ slides were prepared from tumor FNAB samples to retrospectively correlate the results of in vivo and ex vivo chemosentitivty tests from the same xenograft animal.
# (§6) After the treatment cells were collected, protein extracts were prepared and Western blot analysis was performed as described above. The ex vivo effect of ZD 1839 and CCI-779 on phosphorylation of ERK1/2 or S6 ribosomal proteins, respectively, was correlated with the in vivo data gathered from the FNAB smears prepared at day 7 of treatment.
# [7] = tested on: ERK1/2; assay: Panc 265 xenograft FNAB cells treated ex vivo, ERK1/2 phosphorylation; assay type: cell-based, human; conditions: Panc 265 FNAB cells; ZD1839 5 uM; 6 hours
# Protocol: as §5
# To determine viability of tumor cells obtained by FNAB, trypan blue dye exclusion assay was performed. The viability of tumor cells obtained by tumor FNAB from control animals was over 95%. Approximately 75,000 tumor cells were seeded into each well of a 6-well polypropylene microplate. Cells were treated in duplicates with vehicle (control) or with ZD1839 (5 uM) or CCI-779 (1 uM) in a humidified 5% CO2 incubator at 37° C. for different periods to determine the optimal treatment time to analyze drug effects.
# as §6
# [8] = tested on: ERK1/2; assay: HuCCT-1 xenograft tumor FNAB Western blot, ERK1/2 activity; assay type: in vivo, human; conditions: in vivo
# Protocol: as §4
# Fine needle aspirates were obtained with a 25G needle and 10 ml syringe, passing the needle through the tumor 10 times with application of 1-2 ml suction The aspirated material was expressed onto clear glass slides and smeared. All smears were allowed to air dry and then stained with Diff-Quik stain (Baxter Healthcare, Miami, Fla.). Five to ten AD/DQ-stained cytological smears were prepared from each tumor sample. The cellular composition of each aspirate was assessed by cytopathologists.
# as §3, with “Protein extracts were resolved by 4-15% SDS-PAGE and probed with Rabbit anti-EGFR, anti-phospbo-EGFR, anti-ERK1 and anti-phospho-ERK antibodies obtained from New England Biolabs (Beverly, Mass.).” left out
# Next, whether FNAB samples obtained from tumor tissue at the early stage of therapy can be used to predict tumor response was examined. […] Expression and phosphorylation levels of ERK 1/2 were analyzed on Western blot by using extracts prepared from AD/DQ-stained FNAB samples.
Structure (SMILES),phosphorylation of AKT [1],inhibition of EGF-induced ERK1/2 phosphorylation (phospho-ELISA normalized for total ERK1/2) [2],phosphorylation of ERK1/2 [3],phosphorylation levels of ERK1/2 by phospho-ERK1/2 ELISA (raw data) ([4]; HuCCT-1 tumor FNAB samples of treated animals),"increase of ERK1/2 phosphorylation (normalized for total ERK1/2) ([4]; HuCCT-1 tumor FNAB, gefitinib alone)",decrease in tumor volume [5],ERK1/2 activity in vivo [6],ERK1/2 phosphorylation ex vivo [7],"ERK1/2 activity, serial FNAB sampling [8]"
COc1cc2ncnc(Nc3cccc(Cl)c3)c2cc1OC [AG1478],reduced the phosphorylation of both ERK1/2 and AKT proteins,80%,reduced the phosphorylation of both ERK1/2 and AKT proteins,–,–,–,–,–,–
"COc1cc2ncnc(Nc3ccc(F)c(Cl)c3)c2cc1OCCCN1CCOCC1 [gefitinib, Gefitinib]",–,–,–,neither gefitinib nor CI-1040 treatment alone caused any significant change,17%,4%,failed to block ERK1/2 activity,failed to block ERK1/2 phosphorylation,neither of these agents alone caused inhibition
